Experimental data reported in patent publication EP0866075B1, “Method to treat microbial infections by uncoupling of phosphotransferase system and appropriate agents therefor” (Arpida AG,, priority 1997, dated 1998).
Converted amounts (≈) assume the structure as drawn. No end group written: not given here.

Each molecule was assayed against T1, enzyme I (Escherichia coli, UniProt P08839) (assay: biochemical). Conditions: not given.
T1 construct: 3 µM each of purified HPr and enzyme I (Mao et al., 1995); made in house
Design: species or system E. coli
Description: Fig. 2. Assays for the screening, selection and characterization of inhibitory compounds from combinatorial libraries. Reaction products that can be determined experimentally are boxed. The inhibitory compound X can be in soluble form, immobilized on a filamentous phage, or bound to a microtiter well. The transporter for GlcNAc (shaded in grey) contains the IIA, IIB and IIC functional units as domains of a single polypeptide chain. • (a) Binding of Enzyme I to immobilized ligands, e.g. filamentous phages from a phage display library or synthetic peptides from a combinatorial peptide library was detected using [^1251]-Enzyme I and autoradiography. • (b) Phosphorylation by Enzyme I. To identify peptides and filamentous phages displaying a peptide which can be phosphorylated by Enzyme 1, support based peptide libraries and immobilized peptide-displaying phages were incubated over night with enzyme I in the presence of [^32P]phosphoenolpyruvate, and the phosphorylated species were detected with a PhosphorImager. […] A conventional and well established assay to colorimetrically detect the formation of inorganic phosphate has been adapted to the specific needs. The assay can be performed in microtiter plates and quantitated with a microplate photoreader. Another assay to monitor phosphatase activity of soluble compounds is based on the detection of pyruvate which is continuously produced from phosphoenolpyruvate whenever enzyme I is dephosphorylated. The enzyme I-specific phosphatase activity of soluble compounds can be detected from the pyruvate burst. The rate of pyruvate formation is monitored with lactate dehydrogenase and NADH. The assay can be performed in microtiter plates and quantitated with a microplate photoreader. • (d) Inhibition of in vitro PTS activity. The inhibitory activity of soluble compounds can be measured quantitatively in the sugar phosphotransferase assay in the presence of the purified PTS proteins and with [^14C]GlcNAc ([^14C]N-acetyl-glucosamine) or (14C] Glc ([^14C]glucose) as terminal phosphate acceptor (Emi et al., 1982). • (e) Inhibition of PTS activity in bacteria. Compounds that specifically interfere with the PTS can also be detected in bacteria. Indicator E. coli (or any other bacteria) will be plated an two defined minimal salts media containing either glucose or a nonPTS Substrate e.g. lactose as the only carbon source. Compounds from chemical libraries are applied to both cultures.
Inhibition of phosphotransferase activity by soluble peptides. This assay measures the inhibition of enzyme I dependent sugar phosphorylation activity. […] The purified N-acetylglucosamine transporter (II^GlcNAc) of E.coli (Mukhija and Erni, 1996) was used as the sugar specific component. The reaction mixture contained per 100 µl, 100 µg phosphatidyl glycerol from egg yolk (Sigma), 50 mM KPi, pH 7.5, 2.5 mM dithiothreitol, 2.5 mM NaF, 5 mM MgCl2, […] (potassium salt, Sigma), 0.5 mM [U-^14C]GlcNAc (New England Nuclear; 56.3 mCi/mmol, diluted to 1000 cpm/nmol), and 3 µM each of purified HPr and enzyme I (Mao et al., 1995). The reaction was started by addition of 0.1 µg of II^GlcNAc. After incubation for 30 min at 37°C, the reaction was stopped by adding 1 ml ice-cold water. GlcNAc-6-Phosphate was separated from free GlcNAc by anion-exchange chromatography on AG-1-X2 (50-100 mesh, Biorad). Activity is expressed as nmoles of sugar-P formed after 30 min. The HPr concentration was adjusted such that it was rate limiting in the overall phosphotransferase reaction. The inhibitory peptides were added to concentrations of 25 µM to 10 mM. Phosphorylation of GlcNAc in the absences of peptide was taken as 100%.

**Q.** For KKFHLRK [peptide 1, KKFHLRK], which IC50 is on record?
**A.** 150 µM

Same assay, conditions: peptides from support-based combinatorial libraries; 30 min at 37°C, HPr rate limiting

**Q.** How did the “inhibition IC50” value turn out when KKFALRK [compound 2, KKFALRK] was run?
**A.** none

Same assay, conditions: peptides from support-based combinatorial libraries; 30 min at 37°C, HPr rate limiting; read-out: inhibition IC50

**Q.** Which IC50 does the source give for KGWHKRKK [compound 6] here?
**A.** 530 µM

**Q.** For KKFDLRK [compound 3, KKFDLRK], which IC50 is on record?
**A.** 820 µM

**Q.** Which IC50 does the source give for KKFHIRKR [compound 9] here?
**A.** 160 µM

**Q.** For KKWHKRKK [compound 8], which IC50 is on record?
**A.** 440 µM

**Q.** How did the IC50 turn out when KKWHLRKR [compound 5] was run?
**A.** 30 µM

**Q.** Which IC50 does the source give for KKWHRRKK [compound 7] here?
**A.** 300 µM

Same assay, conditions: peptides identified by phage display; 30 min at 37°C, HPr rate limiting; read-out: inhibition IC50

**Q.** With Ac-DGARLHYLF [compound 23] as the molecule, how does the IC50 read?
**A.** 7600 µM

**Q.** How did the IC50 turn out when DGARLHYLF [compound 22] was run?
**A.** 1200 µM

**Q.** For GLRFGKTRVHYLVLG [compound 14], which IC50 is on record?
**A.** 25 µM

**Q.** For KISRHGKRGK [compound 18], which IC50 is on record?
**A.** 140 µM

**Q.** Which IC50 does the source give for KISRHGRPTG [compound 19] here?
**A.** 1070 µM

**Q.** For KMSRHRKPGA [compound 16], which IC50 is on record?
**A.** 100 µM

**Q.** MSRHRN [compound 29, MSRHRN] was tested. Which IC50 did it give?
**A.** 760 µM

**Q.** For RHITLF [compound 28, RHITLF], which IC50 is on record?
**A.** 1380 µM

**Q.** How did the IC50 turn out when RHITSL [compound 27, RHITSL] was run?
**A.** 650 µM

**Q.** Which IC50 does the source give for RHRTLF [compound 25, RHRTLF] here?
**A.** 410 µM

**Q.** For RHWSIF [compound 24, RHWSIF], which IC50 is on record?
**A.** 400 µM

**Q.** RHYLLF [compound 26, RHYLLF] was tested. Which IC50 did it give?
**A.** 500 µM

**Q.** For RIHFIPRRGR [compound 20], which IC50 is on record?
**A.** 280 µM

**Q.** RLHYLF [compound 21, RLHYLF] was tested. Which IC50 did it give?
**A.** 375 µM

**Q.** How did the IC50 turn out when SGRKSTRVHHWLLVL [compound 15] was run?
**A.** 60 µM

Each molecule was assayed on E. coli K-12 UT580 (assay: Growth inhibition assay (filter discs on LB soft agar)). Conditions: E. coli K-12 UT580, LB agar, over night at 37°C.
Assay type: cell-based
Description: Fig. 4. Growth inhibition of E. coli K12 UT580. […]

**Q.** For KKFHLRK [peptide 1, KKFHLRK], which “growth inhibition MIC” value is on record?
**A.** 125.8 µM

**Q.** Which “growth inhibition MIC” value does the source give for KKWHLRKR [compound 5] here?
**A.** 63.0 µM

Each molecule was assayed on E. coli K-12 UT580 (assay: microbe, parasite or virus in culture). Conditions: Escherichia coli, K12UT580, 24 h, read-out: growth inhibition MIC.
Description: Growth inhibition assay. An over night culture of E. coli K-12 UT580 grown in LB-medium was diluted 1:30 into soft agar (0.7% agarose in LB broth) at 40°C, and 3 ml of the diluted cell suspension were spread an LB agar plates. Filter discs (4.4 mm diameter) were placed in regular intervals on the solidified top agar. To each filter was added 10 µl of one of the different peptide stock solutions (20 µM to 80 µM). The agar plates were incubated over night at 37°C. The area of the clear zone around each filter disc was determined. The clear area is taken as a measure for the growth inhibitory activity of the peptide.
Growth inhibition of E. coli K12 UT580. Peptides were added to filter discs and placed onto a cell culture in LB soft agar. The clear zones are indicative of growth inhibition (panel A).

**Q.** How did the MIC turn out when CN(C)[C@@H]1C(O)=C(C(N)=O)C(=O)[C@@]2(O)C(O)=C3C(=O)c4c(O)cccc4[C@@](C)(O)[C@H]3C[C@@H]12 [tetracycline] was run?
**A.** 2.5 µM (≈ 1.11 µg/mL)
